Common to all, as to type: biochemical
Experiment [1] addresses T1, Photinus pyralis luciferase (Photinus pyralis, UniProt P08659).
T1 construct: purchased Promega
The experiment can be described thus: Bioluminescence of nucleotides with firefly luciferase in pyrophosphate assay buffer (ELIDA reagent). To be noted: for wavelength of maximal light emission: pH 7.8. On the procedure:
Pyrophosphate assay buffer (PAB) was made up as follows:
50 μl of PAB was aliquoted into two wells of a 96 well plate. To one sample was added 1 μl of 0.1 mM sodium pyrophosphate; to the other was added 1 μl of 2 mM dATP. The resulting light emission was observed using a Syngene light-box with a black and white CCD camera integrating the signal over 5 seconds. […] The amount of dATP added is equivalent to ⅕ the amount used in a standard 50 μl PCR reaction.
A green filter was placed in front of the lens of the CCD camera and the sample above was observed once more.

For a further experiment, the target named is T2, Taq polymerase (Thermus aquaticus, UniProt P19821).
T2 construct: purchased Roche
The experiment can be described thus: PCR using the dATP analogue, product seen by agarose gel electrophoresis. Here is the method: A 50 μl PCR reaction contained the following:
The sequences of primers 1 and 2 and the test plasmid are given in SEQ ID Nos. 1, 2 and 3, respectively. The size of the expected PCR product was 158 bp.
Taq polymerase was added to the sample after heating to 95° for 30 seconds. The following cycling parameters were implemented on a Perkin-Elmer GeneAmp PCR system 2400.
10 μl of the resulting PCR reaction was loaded onto a […] containing ethidium bromide alongside a molecular weight marker. The gel was run at 60V for 50 minutes and then visualised under a transilluminator.

The target of experiment [2] is T3, luciferase (Photinus pyralis, UniProt P08659). As to the kind of experiment: Stability of light emission from ELIDA assays of PCR reactions. To be noted: four consecutive readings over 1 minute; for light emission over time: 5 and 35 cycle PCR samples. On the procedure: PCR reactions were set up and run as in Example 5. The analysis of each PCR sample was initiated by mixing 1 μl of the PCR reaction with 20 μl of ELIDA assay buffer. The light emitted from the sample was then measured with a Labsystems Luminoscan Ascent luminometer in a series of four consecutive light readings over a period of 1 minute. Each light reading represented the light emission from the sample integrated over a ten-second interval (using the machine's default PMT voltage).
This effect becomes greater with the number of PCR cycles. […] As a result, the magnitude of the differential between the readings for 5 and 35 cycles over the four readings taken, is almost constant (only 5% difference).

In experiment [3] the target is T3, luciferase. The experiment can be described thus: Signal:background ratio in ELIDA assays of PCR reactions. As to conditions: unreacted PCR mix vs 30 cycles, compared to dATP. Here is the method: PCR reactions were set up as in Example 2 except that only 0.5 pg of the test plasmid pPw601 a was used. Further, the PCR reactions contained either d-α-SATP or dATP. The light emission from an ELIDA assay of unreacted PCR mixes containing either d-α-SATP or dATP was measured as in Example 6. A further ELIDA assay was performed on the same samples after they had completed 30 cycles of a PCR reaction (and had produced the same amount of amplicon as judged by agarose gel analysis). The ratio of the light emission from the unreacted PCR mix to the reacted PCR mix is shown in FIG. 3 (showing signal:background ratio).

T1 sequence (P08659 whole entry): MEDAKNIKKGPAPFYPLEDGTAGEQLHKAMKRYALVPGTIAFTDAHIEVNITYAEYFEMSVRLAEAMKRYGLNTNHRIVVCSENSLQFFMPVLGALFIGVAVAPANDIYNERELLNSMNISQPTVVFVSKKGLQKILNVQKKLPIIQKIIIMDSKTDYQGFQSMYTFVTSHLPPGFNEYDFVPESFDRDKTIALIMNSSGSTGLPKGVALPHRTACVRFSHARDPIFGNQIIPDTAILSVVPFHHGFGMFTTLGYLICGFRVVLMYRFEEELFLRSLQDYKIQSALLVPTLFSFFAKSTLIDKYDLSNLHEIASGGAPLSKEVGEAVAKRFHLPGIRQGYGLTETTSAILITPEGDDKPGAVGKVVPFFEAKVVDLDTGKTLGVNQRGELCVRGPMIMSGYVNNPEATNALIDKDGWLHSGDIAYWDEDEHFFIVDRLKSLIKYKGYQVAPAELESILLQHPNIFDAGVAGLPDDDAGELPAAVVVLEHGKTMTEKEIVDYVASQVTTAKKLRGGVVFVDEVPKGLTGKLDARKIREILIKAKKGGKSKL
T3 sequence (P08659 whole entry): as above
T2 sequence (P19821 whole entry): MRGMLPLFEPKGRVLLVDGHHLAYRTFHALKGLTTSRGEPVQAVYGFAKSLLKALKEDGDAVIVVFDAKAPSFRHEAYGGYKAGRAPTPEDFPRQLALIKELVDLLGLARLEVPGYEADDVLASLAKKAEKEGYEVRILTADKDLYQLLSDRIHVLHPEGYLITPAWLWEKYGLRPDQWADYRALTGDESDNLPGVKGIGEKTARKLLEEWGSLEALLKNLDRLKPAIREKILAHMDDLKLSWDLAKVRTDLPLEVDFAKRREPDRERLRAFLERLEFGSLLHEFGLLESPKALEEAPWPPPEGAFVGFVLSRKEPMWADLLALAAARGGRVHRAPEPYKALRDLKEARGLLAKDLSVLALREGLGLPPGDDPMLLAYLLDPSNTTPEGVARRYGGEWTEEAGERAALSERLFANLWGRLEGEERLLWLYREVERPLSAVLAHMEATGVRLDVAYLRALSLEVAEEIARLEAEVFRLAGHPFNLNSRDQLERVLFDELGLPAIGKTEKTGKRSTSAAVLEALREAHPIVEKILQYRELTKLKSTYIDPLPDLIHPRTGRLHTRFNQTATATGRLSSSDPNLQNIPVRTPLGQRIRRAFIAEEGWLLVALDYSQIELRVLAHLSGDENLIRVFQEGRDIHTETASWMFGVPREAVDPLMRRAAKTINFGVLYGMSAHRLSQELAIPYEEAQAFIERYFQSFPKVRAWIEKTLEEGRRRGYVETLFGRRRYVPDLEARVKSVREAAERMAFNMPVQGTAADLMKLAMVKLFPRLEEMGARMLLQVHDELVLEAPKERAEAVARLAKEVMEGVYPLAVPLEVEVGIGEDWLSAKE

In the case of `Nc1ncnc2c1ncn2[C@@H]1O[C@H](COP(=O)(O)OP(=O)(O)OP(=O)(O)O)[C@@H](O)[C@H]1O` [ATP], in experiment [1], the “wavelength of maximal light emission” value turned out to be 550 nm.
For the compound `Nc1ncnc2c1ncn2[C@H]1C[C@H](O)[C@@H](COP(=O)(O)OP(=O)(O)OP(=O)(O)O)O1` [dATP], the “PCR product generated (gel)” value at Taq polymerase (1/10th the usual concentration of 0.2 mM) is given as “no PCR product is detected”. Further, the “light emission on addition to pyrophosphate assay buffer” value in experiment [1] (1 μl of 2 mM in 50 μl PAB, CCD camera, 5 seconds) is reported as “significant light emission”. Moreover, in experiment [1], the “wavelength of maximal light emission” value stood at 620 nm. In addition, the “light emission over time” value on luciferase [2] is “significant decay in light emission over time”.
As for `Nc1ncnc2c1ncn2[C@H]1C[C@H](O)[C@@H](COP(O)(=S)OP(=O)(O)OP(=O)(O)O)O1` (stereo partly drawn) [d-α-SATP], the “PCR product generated (gel)” value at Taq polymerase (used instead of dATP, 30 cycles) is reported as “a PCR product is generated”. Further, the “substrate quality for luciferase relative to dATP” value in experiment [1] (direct reaction with luciferase) was “approximately one-hundred-fold poorer substrate for luciferase than dATP”. The “signal:background ratio” value at luciferase [3] was “considerably improves the signal:background ratio”. Further, on luciferase [2], the “difference in the differential between the readings for 5 and 35 cycles over the four readings” value stood at 5%; the “light emission over time” value was “close to constant”.

The record behind these values is patent publication US20040185457A1, “Method for detecting dna polymerisation” (priority 2001, published 2004).
